Experimental data from US6624179B1, “Geometrical isomers of acrylonitrile compounds, mixture thereof, and process for producing these” (Ishihara Sangyo Kaisha Ltd., priority 1999, dated 2003).
“Also recorded” adds a separate entry of the source.

Key:
[1] = system: citrus red mite (Panonychus citri); assay: Test Example 1: spray application to satsuma mandarin infested with citrus red mite, greenhouse; assay type: in vivo; conditions: for Number of adult citrus red mite 7th day / Number of adult citrus red mite 12th day / Number of adult citrus red mite 18th day / Number of adult citrus red mite 26th day: 150 ppm active ingredient, sprayed; for Number of adult citrus red mite 7th day: 10% water-based suspension concentrate, 7th day after application; for Number of adult citrus red mite 12th day: 12th day after application; for Number of adult citrus red mite 18th day: 18th day after application; for Number of adult citrus red mite 26th day: 26th day after application; for pesticidal effects (in words): 150 ppm, citrus red mite on satsuma mandarin, conclusion from Table 1; for Number of adult citrus red mite Before application: baseline count before application, all leaves of satsuma mandarin tree
Source text: A 10% water-based suspension concentrate of each of compound D and compound E was dispersed in water to obtain a chemical solution wherein the active ingredient is 150 ppm. Such a chemical solution was applied to satsuma mandarin (Citrus unshiu Marc.) infested with citrus red mite (Panonychus citri) (planted in a plastic pot having a diameter of 24 cm and a height of 29 cm) by means of a sprayer and then left to stand in a greenhouse. Before the application and on the 7th day, 12th day, 18th day and 26th day after the application, the number of adult citrus red mite on all leaves of the satsuma mandarin tree was counted.

[2] = system: two-spotted spider mite (Tetranychus urticae); assay: Test Example 2: spray application to eggplant infested with two-spotted spider mite, greenhouse; assay type: in vivo; conditions: for Number of adult two-spotted spite mite 5th day / Number of adult two-spotted spite mite 9th day / Number of adult two-spotted spite mite 12th day / Number of adult two-spotted spite mite 15th day: 150 ppm active ingredient, sprayed; for Number of adult two-spotted spite mite 5th day: 10% water-based suspension concentrate in water with 0.02% spreader, 5th day after application; for Number of adult two-spotted spite mite 9th day: 9th day after application; for Number of adult two-spotted spite mite 12th day: 12th day after application; for Number of adult two-spotted spite mite 15th day: 15th day after application; for pesticidal effects (in words): 150 ppm, two-spotted spider mite on eggplant, conclusion from Table 2; for Number of adult two-spotted spite mite Before application: baseline count before application, on the eggplant
Source text: A 10% water-based suspension concentrate of each of compounds H and G was dispersed in water containing 0.02% of a spreader (Shinrino, manufactured by NIHON NOHYAKU CO., LTD.) to obtain a chemical solution wherein the active ingredient was 150 ppm. Such a chemical solution was applied to an eggplant (Solanum melongena) infested with two-spotted spider mite (Tetranychus urticae) (planted in a plastic pot having a diameter of 17 cm and a height of 19 cm) by means of a sprayer, and then left to stand in a greenhouse. Before the application and on the 5th day, 9th day, 12th day and 15th day after the application, the number of adult two-spotted spider mite on the eggplant was counted.

SMILES: CSC(=O)OC(=C(C#N)c1ccc(C(C)(C)C)cc1)c1ccccc1C(F)(F)F [Compound D, α-(4-tert-Butylphenyl)-β-[(methylthio)carbonyloxy]-β-(2-trifluoromethylphenyl)acrylonitrile]
- Number of adult citrus red mite 7th day [1]: 0
- Number of adult citrus red mite 12th day [1]: 4
- Number of adult citrus red mite 18th day [1]: 2
- Number of adult citrus red mite 26th day [1]: 65
- pesticidal effects (in words) [1]: excellent pesticidal effects
- Number of adult citrus red mite Before application [1]: 111

SMILES: CSC(=O)OC(=C(C#N)c1ccc(C(C)(C)C)cc1)c1ccccc1C(F)(F)F [Compound E, α-(4-tert-Butylphenyl)-β-[(methylthio)carbonyloxy]-β-(2-trifluoromethylphenyl)acrylonitrile]
- Number of adult citrus red mite 7th day [1]: 0
- Number of adult citrus red mite 12th day [1]: 2
- Number of adult citrus red mite 18th day [1]: 1
- Number of adult citrus red mite 26th day [1]: 4
- pesticidal effects (in words) [1]: excellent pesticidal effects; also recorded: superior pesticidal effects
- Number of adult citrus red mite Before application [1]: 106

SMILES: CSC(=S)OC(=C(C#N)c1ccc(Cl)cc1)c1ccccc1C(F)(F)F [Compound G, α-(4-Chlorophenyl)-β-(S-methyldithiocarbonyloxy)-β-(2-trifluoromethylphenyl)acrylonitrile]
- Number of adult two-spotted spite mite 5th day [2]: 1
- Number of adult two-spotted spite mite 9th day [2]: 0
- Number of adult two-spotted spite mite 12th day [2]: 2
- Number of adult two-spotted spite mite 15th day [2]: 4
- pesticidal effects (in words) [2]: excellent pesticidal effects; also recorded: superior pesticidal effects
- Number of adult two-spotted spite mite Before application [2]: 106

SMILES: CSC(=S)OC(=C(C#N)c1ccc(Cl)cc1)c1ccccc1C(F)(F)F [H, α-(4-chlorophenyl)-β-(S-methyldithiocarbonyloxy)-β-(2-trifluoromethylphenyl)acrylonitrile]
- Number of adult two-spotted spite mite 5th day [2]: 0
- Number of adult two-spotted spite mite 9th day [2]: 1
- Number of adult two-spotted spite mite 12th day [2]: 18
- Number of adult two-spotted spite mite 15th day [2]: 42
- pesticidal effects (in words) [2]: excellent pesticidal effects
- Number of adult two-spotted spite mite Before application [2]: 111
